Like-named read-outs stand apart in the source and are kept apart here.
Experiments:
[1] = system: HCV genotype 1a (H77 strain) replicon in HUH-7 cells; assay: HCV replicon luciferase reporter assay, genotype 1a; assay type: cell-based; conditions: Hepatitis C virus, Huh-7, 72 h, HCV genotype 1a replicon luciferase, 3 days incubation
In short: (§1)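 Replicon inhibition for both genotypes was measured as Renilla luciferase signal (EnduRen, 7.5 μM final, 2 h) after 3-day, 37° C exposure of replicon-bearing HUH-7 cells in 4% FCS DMEM, 0.5% DMSO. The 1b construct carries S1179I; the 1a H77 construct carries P1496L and S2204I. Twenty-point, 3-fold dilutions were fitted four-parametrically for EC50, and CC50 was taken from multiplexed Cell Titer-Blue.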

[2] = system: HCV genotype 1b (Con1) replicon in HUH-7 cells; assay: HCV replicon luciferase reporter assay, genotype 1b; assay type: cell-based; conditions: Hepatitis C virus, Huh-7, 72 h, HCV genotype 1b replicon luciferase, 3 days incubation
In short: as §1

[3] = GETYPE1A, read-out: LE_1a (EC50, range)
[4] = GETYPE1B, read-out: LE_1b (EC50, range)

| Structure (SMILES) | EC50 ([1]; read-out: LE_1a (EC50, range)) | EC50 ([2]; read-out: LE_1b (EC50, range)) | EC50 [1, 3] | EC50 [2, 4] | also measured |
| --- | --- | --- | --- | --- | --- |
| CC[C@@H]1C[C@H](C)CC/C=C\[C@@H]2C[C@@]2(C(=O)NS(=O)(=O)C2CC2)NC(=O)[C@@H]2C[C@@H](Oc3ncc(C(=O)O)c4cc(OC)ccc34)CN2C(=O)[C@H]1NC(=O)OC(C)(C)C(F)(F)F [Compound 4279, 1-(((2R,6S,7R,9R,13aS,14aR,16aS,Z)-14a-((cyclopropylsulfonyl)carbamoyl)-7-ethyl-9-methyl-5,16-dioxo-6-((((1,1,1-trifluoro-2-methylpropan-2-yl)oxy)carbonyl)amino)-1,2,3,5,6,7,8,9,10,11,13a,14,14a,15,16,16a-hexadecahydrocyclopropa[e]pyrrolo[1,2-1,2-a][1,4]diazacyclopentadecin-2-yl)oxy)-6-methoxyisoquinoline-4-carboxylic acid] | 35 to 620 nM | 35 to 620 nM |  |  |  |
| CC[C@@H]1C[C@H](C)CC/C=C\[C@@H]2C[C@@]2(C(=O)NS(=O)(=O)C2(C)CC2)NC(=O)[C@@H]2C[C@@H](Oc3ncc(OC)c4ccc(F)cc34)CN2C(=O)[C@H]1NC(=O)N1CCS(=O)(=O)CC1 [Compound 4283, N-((2R,6S,7R,9R,13aS,14aR,16aS,Z)-7-ethyl-2-((7-fluoro-4-methoxyisoquinolin-1-yl)oxy)-9-methyl-14a-(((1-methylcyclopropyl)sulfonyl)carbamoyl)-5,16-dioxo-1,2,3,5,6,7,8,9,10,11,13a,14,14a,15,16,16a-hexadecahydrocyclopropa[e]pyrrolo[1,2-a][1,4]diazacyclopentadecin-6-yl)thiomorpholine-4-carboxamide 1,1-dioxide] | 5.01 to 35 nM | 1.01 to 5 nM |  |  |  |
| CC[C@@H]1C[C@H](C)CC/C=C\[C@@H]2C[C@@]2(C(=O)NS(=O)(=O)C2(C)CC2)NC(=O)[C@@H]2C[C@@H](Oc3ncc(OC)c4ccc(F)cc34)CN2C(=O)[C@H]1NC(=O)N1CCOCC1 [Compound 4284, N-((2R,6S,7R,9R,13aS,14aR,16aS,Z)-7-ethyl-2-((7-fluoro-4-methoxyisoquinolin-1-yl)oxy)-9-methyl-14a-(((1-methylcyclopropyl)sulfonyl)carbamoyl)-5,16-dioxo-1,2,3,5,6,7,8,9,10,11,13a,14,14a,15,16,16a-hexadecahydrocyclopropa[e]pyrrolo[1,2-a][1,4]diazacyclopentadecin-6-yl)morpholine-4-carboxamide] | 0.51 to 1 nM | 0.1 to 0.5 nM |  |  | EC50 ([1]; read-out: LE_1a (EC50)): 0.73 nM; EC50 ([2]; read-out: LE_1b (EC50)): 0.42 nM |
| COc1cc2nc(O[C@@H]3C[C@H]4C(=O)N[C@]5(C(=O)NS(=O)(=O)C6(C)CC6)C[C@H]5/C=C\CC[C@H](C)C[C@@H](C)[C@H](NC(=O)OC(C)(C)C(F)(F)F)C(=O)N4C3)c(C(F)(F)F)nc2cc1F [Compound 4289] |  |  | 5.01 to 35 nM | 1.01 to 5 nM |  |
| COc1cc2nc(O[C@@H]3C[C@H]4C(=O)N[C@]5(C(=O)NS(=O)(=O)C6(C)CC6)C[C@H]5/C=C\CC[C@@H](C)C[C@@H](C)[C@H](NC(=O)OC(C)(C)C(F)(F)F)C(=O)N4C3)c(C(F)(F)F)nc2cc1F [Compound 4290] |  |  | 1.01 to 5 nM | 0.51 to 1 nM |  |
| CCOc1ccc2nc(Cl)c(O[C@@H]3C[C@H]4C(=O)N[C@]5(C(=O)NS(=O)(=O)C6(CF)CC6)C[C@H]5/C=C\CC[C@@H](C)C[C@@H](C)[C@H](NC(=O)OC(C)(C)C(F)(F)F)C(=O)N4C3)c(Cl)c2c1 [Compound 4292] |  |  | 5.01 to 35 nM | 5.01 to 35 nM |  |
| CCOc1ccc2ncc(O[C@@H]3C[C@H]4C(=O)N[C@]5(C(=O)NS(=O)(=O)C6(CF)CC6)C[C@H]5/C=C\CC[C@@H](C)C[C@@H](C)[C@H](NC(=O)OC(C)(C)C(F)(F)F)C(=O)N4C3)cc2c1 [Compound 4296] |  |  | 5.01 to 35 nM | 5.01 to 35 nM | EC50 ([1]; GETYPE1A, read-out: LE_1a (EC50)): 11.9 nM; EC50 ([2]; GETYPE1B, read-out: LE_1b (EC50)): 5.46 nM |
| CC[C@@H]1C[C@H](C)CC/C=C\[C@@H]2C[C@@]2(C(=O)NS(=O)(=O)C2(C)CC2)NC(=O)[C@@H]2C[C@@H](Oc3cc(Cl)c4ccc(OC)cc4n3)CN2C(=O)[C@H]1NC(=O)OC(C)(C)C(F)(F)F [Compound 4298] |  |  | 1.01 to 5 nM | 1.01 to 5 nM |  |
| COc1ccc2c(Cl)cc(O[C@@H]3C[C@H]4C(=O)N[C@]5(C(=O)NS(=O)(=O)C6(C)CC6)C[C@H]5/C=C\CC[C@@H](C)C[C@@H](C)[C@H](NC(=O)OC(C)(C)C)C(=O)N4C3)nc2c1 [Compound 4300, tert-butyl ((2R,6S,7R,9R,13aS,14aR,16aS,Z)-2-((4-chloro-7-methoxyquinolin-2-yl)oxy)-7,9-dimethyl-14a-(((1-methylcyclopropyl)sulfonyl)carbamoyl)-5,16-dioxo-1,2,3,5,6,7,8,9,10,11,13a,14,14a,15,16,16a-hexadecahydrocyclopropa[e]pyrrolo[1,2-a][1,4]diazacyclopentadecin-6-yl)carbamate] | 0.51 to 1 nM | 0.51 to 1 nM |  |  |  |
| COc1ccc2c(Cl)cc(O[C@@H]3C[C@H]4C(=O)N[C@]5(C(=O)NS(=O)(=O)C6(C)CC6)C[C@H]5/C=C\CC[C@@H](C)C[C@@H](C)[C@H](NC(=O)OC(C)(C)C(F)(F)F)C(=O)N4C3)nc2c1 [Compound 4302] |  |  | 1.01 to 5 nM | 1.01 to 5 nM |  |
| CC[C@@H]1C[C@H](C)CC/C=C\[C@@H]2C[C@@]2(C(=O)NS(=O)(=O)C2CC2)NC(=O)[C@@H]2C[C@@H](Oc3nc4ccc(OC)cc4nc3N(C)C)CN2C(=O)[C@H]1NC(=O)OC(C)(C)C [Compound 4304, tert-butyl ((2R,6S,7R,9R,13aS,14aR,16aS,Z)-14a-((cyclopropylsulfonyl)carbamoyl)-2-((3-(dimethylamino)-6-methoxyquinoxalin-2-yl)oxy)-7-ethyl-9-methyl-5,16-dioxo-1,2,3,5,6,7,8,9,10,11,13a,14,14a,15,16,16a-hexadecahydrocyclopropa[e]pyrrolo[1,2-a][1,4]diazacyclopentadecin-6-yl)carbamate] | 35 to 620 nM | 5.01 to 35 nM |  |  |  |
| CC[C@@H]1C[C@H](C)CC/C=C\[C@@H]2C[C@@]2(C(=O)NS(=O)(=O)C2CC2)NC(=O)[C@@H]2C[C@@H](Oc3nc4ccc(OC)cc4nc3N(C)C)CN2C(=O)C1NC(=O)OC(C)(C)C(F)(F)F (some centres unmarked) [Compound 4305] |  |  | 35 to 620 nM | 5.01 to 35 nM |  |
| COc1cnc2ccc(O[C@@H]3C[C@H]4C(=O)N[C@]5(C(=O)NS(=O)(=O)C6(C)CC6)C[C@H]5/C=C\CC[C@@H](C)C[C@@H](C)[C@H](NC(=O)OC(C)(C)C)C(=O)N4C3)cc2n1 [Compound 4310, tert-butyl ((2R,6S,7R,9R,13aS,14aR,16aS,Z)-2-((3-methoxyquinoxalin-6-yl)oxy)-7,9-dimethyl-14a-(((1-methylcyclopropyl)sulfonyl)carbamoyl)-5,16-dioxo-1,2,3,5,6,7,8,9,10,11,13a,14,14a,15,16,16a-hexadecahydrocyclopropa[e]pyrrolo[1,2-a][1,4]diazacyclopentadecin-6-yl)carbamate] | 0.51 to 1 nM | 1.01 to 5 nM |  |  |  |
| CCOc1ccc2ncc(O[C@@H]3C[C@H]4C(=O)N[C@]5(C(=O)NS(=O)(=O)C6(C)CC6)C[C@H]5/C=C\CC[C@@H](C)C[C@@H](C)[C@H](NC(=O)OC(C)(C)C)C(=O)N4C3)cc2c1 [Compound 4311, tert-butyl ((2R,6S,7R,9R,13aS,14aR,16aS,Z)-2-((6-ethoxyquinolin-3-yl)oxy)-7,9-dimethyl-14a-(((1-methylcyclopropyl)sulfonyl)carbamoyl)-5,16-dioxo-1,2,3,5,6,7,8,9,10,11,13a,14,14a,15,16,16a-hexadecahydrocyclopropa[e]pyrrolo[1,2-a][1,4]diazacyclopentadecin-6-yl)carbamate] | 1.01 to 5 nM | 1.01 to 5 nM |  |  |  |

— US9499550B2 (BRISTOL-MYERS SQUIBB COMPANY, priority 2012, dated 2016)
